# According to patent US7572831B2, “Composition containing chalcone” (Angiolab, Inc., priority 2002, dated 2009):
# What was measured:
# MMP-2 = target: T1, MMP-2 (Homo sapiens, UniProt P08253); test: MMP-2 spectrofluorometric enzyme activity assay; assay type: biochemical; conditions: 50 μM compound
# T1 construct: made in house; host or cells: Sf21 insect cells, baculovirus (pBlueBac4.5)
# T1 sequence (P08253 110-660): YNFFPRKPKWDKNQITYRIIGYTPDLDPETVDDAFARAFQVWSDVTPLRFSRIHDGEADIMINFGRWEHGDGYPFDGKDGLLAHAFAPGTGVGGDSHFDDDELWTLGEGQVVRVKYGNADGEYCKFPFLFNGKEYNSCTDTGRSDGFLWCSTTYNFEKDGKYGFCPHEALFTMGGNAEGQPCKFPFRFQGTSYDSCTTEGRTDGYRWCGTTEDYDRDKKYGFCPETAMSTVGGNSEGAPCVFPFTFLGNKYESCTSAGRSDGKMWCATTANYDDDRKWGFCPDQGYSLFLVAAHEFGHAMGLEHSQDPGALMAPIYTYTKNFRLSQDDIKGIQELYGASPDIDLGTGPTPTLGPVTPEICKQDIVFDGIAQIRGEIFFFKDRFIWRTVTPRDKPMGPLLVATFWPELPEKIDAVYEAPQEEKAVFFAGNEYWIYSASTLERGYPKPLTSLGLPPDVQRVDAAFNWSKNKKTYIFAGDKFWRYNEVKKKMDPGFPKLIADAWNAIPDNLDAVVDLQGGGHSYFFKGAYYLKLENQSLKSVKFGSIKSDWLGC
# Procedure: (§1) MMP-1, MMP-2, MMP-9 and MMP-13 were cloned and prepared from insect cells (Sf21 insect cell) by using a Baculovirus system.
# (§2) Each cDNA for corresponding MMPs was cloned to a pBlueBac4.5 transfer vector (Invitrogen, Cat no. V1995-20), and then transfected to Sf21 cells with a Bac-N-Blue Transfection Kit (Invitrogen, Cat no. K855-01). Sf21 cells were incubated with a TNM-FH (Sigma, St. Louis, Mo., U.S.A) media containing 10% fetal bovine serum at 27° C., then harvested and re-suspended at a concentration of 10^7 cell/Ml. The cell suspension was incubated with a virus containing the cloned gene for 1 hr at room temperature. Infected Sf21 cells were grown for 72 hrs and the medium was recovered, and the MMP was purified. MMP-2 (GENEBANK No. XM—048244) and MMP-9 (GENEBANK No. XM—009491) were recovered from a gelatin-sepharose affinity column (Sigma, G5384) by eluting with 5% DMSO-containing buffer. MMP-1 (GENEBANK NO. XM—040735) and MMP-13 (GENEBANK NO. NM_002427) were purified with SP-sepharose column (Pharmacia, 17-02729-01) chromatography.
# (§3) In order to investigate MMP inhibition by chalcone or its derivatives, MMP enzyme activity was assayed by a spectrofluorometric method using Perkin-Elmer LS50B.
# (§4) Purified MMP-1, MMP-2, MMP-9 and MMP-13 were used after activation with 1 mM APMA before assay.
# (§5) The substrate for MMP-1 was 2,4-dinitrophenyl-Pro-Leu-Ala-Leu-Trp-Ala-Arg-OH (Calbiochem). 2,4-dinitrophenyl-Pro-Leu-Met-Trp-Ser-Arg-OH (Calbiochem) was used for MMP-2 and MMP-9 activity assay. As a substrate for MMP-13, MCA-Pro-Cha-Gly-Nva-His-Ala-Dpa-NH2 (Calbiochem) was used [MCA=methyl coumarylamide; Cha=L-cyclohexylalanine; Nva=L-norvaline; Dpa=3-(2,4-dinitrophenyl)-L-2,3-diaminoproprionic acid].
# (§6) As a control, 2 Ml of reaction buffer (50 mM Tricine, pH 7.5, 10 mM CaCl2, 200 mM NaCl) comprising DMSO, 10 nM of enzyme and 10 μM of substrate was prepared in a cuvette. Fluorescence intensity was measured for 5-10 min at room temperature with a spectrofluorometer.
# (§7) 50 μM Chalcone or its derivatives were added to a reaction buffer containing a substrate and enzyme, and fluorescence intensity was measured in the same manner.
# MMP-13 = target: T2, MMP-13 (Homo sapiens, UniProt P45452); test: MMP-13 spectrofluorometric enzyme activity assay; assay type: biochemical; conditions: 50 μM compound
# T2 construct: made in house; host or cells: Sf21 insect cells, baculovirus (pBlueBac4.5)
# Procedure: as §1, §2, §3, §4, §5, §6, §7
# TPA-induced ear edema = TPA-induced ear edema model; assay type: in vivo, ICR mouse; conditions: topical 5% in acetone (indomethacin 0.5 mg/ear), 4 hours after TPA; for Δ Ear thickness (um ± S.D): TPA control 176 ± 35
# Procedure: To observe the anti-inflammatory effects of chalcone or its derivatives edema was induced in the ear by topical application of 10 ul of TPA (Tetradecanoylphorbol acetate) in acetone (2.5 ug/ear) to both the inner and outer surface of one ear of each 6-week-old ICR mouse. 5% of Chalcone or its derivatives diluted with acetone were applied separately to each ear topically immediately after TPA. The reference drug, indomethacin (0.5 mg/ear), was administered as a positive control. Ear thickness was measured before and 4 hours after treatment with the irritant using a micrometer (Mitutoyo Co.). Ear thickness was expressed as the mean of the difference between thickness before and after challenge. Inhibition ratio percentage of edema was expressed as the reduction in thickness with respect to the control treated only with TPA. As shown in FIG. 6 and Table 2, chalcone or its derivatives suppressed the TPA-induced ear edema.
# [1] = system: human umbilical vein endothelial cells (HUVECs); test: Tube formation of HUVEC on Matrigel; assay type: cell-based; conditions: 50 μM, 8-16 hrs
# Text: The effect of chalcone or its derivatives on human endothelial cells was investigated to evaluate the biological effect of chalcones as MMP inhibitors. Since MMPs are responsible for the degradation of extracellular matrix, chalcone or its derivatives can inhibit the formation of tubular network of vessel, which represent migration and differentiation of endothelial cell. Blood vessel endothelial cells, human umbilical vein endothelial cells (HUVECs), were isolated from freshly obtained cords after cesarean section according to Grants' method (Grants D. S., et al., Cell, 58, pp933-943, 1989). They were identified by immunocytochemical staining with anti-Factor VIII antibody. HUVECs cultured on Matrigel (BD Bioscience, Bedford, Mass., USA) were treated with 50 μM of chalcone or its derivatives, and further incubated at 37° C. for 8-16 hrs. As a control, the procedure was repeated with the solvent of the above compounds.
Compound,MMP-2 inhibition (% inhibition) (MMP-2),MMP-13 inhibition (% inhibition) (MMP-13),Inhibition ratio (%) of ear edema (TPA-induced ear edema) [%],Δ Ear thickness (um ± S.D) (TPA-induced ear edema) [um],Tubular (microvascular) network formation of HUVEC [1]
"O=C(C=Cc1ccccc1O)c1ccccc1 [2-hydroxy chalcone, 2-hydroxychalcone (1-phenyl-3-(2-hydroxyphenyl)prophenone)]",90.4,89.9,58.0,74 ± 20,–
"COc1ccc(C(=O)C=Cc2ccccc2)cc1 [4′-methoxy chalcone, 4′-methoxychalcone (1-(4-methoxyphenyl)-3-phenylprophenone)]",99.1,86.8,40.9,104 ± 21,microvascular network was disconnected
"O=C(C=Cc1ccc(O)cc1)c1ccccc1 [4-hydroxy chalcone, 4-hydroxychalcone (1-phenyl-3-(4-hydroxyphenyl)prophenone)]",95.9,94.5,–,–,–
"COc1ccc(C=CC(=O)c2ccccc2)cc1 [4-methoxy chalcone, 4-methoxychalcone (1-phenyl-3-(4-methoxyphenyl)prophenone)]",92.7,83.9,56.2,77 ± 19,–
O=C(CCc1ccc(O)cc1)c1c(O)cc(O)cc1O [Phloretin],87.2,77.0,–,–,–
"COc1ccc2c(c1)c(CC(=O)O)c(C)n2C(=O)c1ccc(Cl)cc1 [Indomethacin, reference compound]",–,–,72.7,48 ± 25,–
"COc1ccc(C(=O)C=Cc2ccccc2)c(OC)c1 [2′,4′-dimethoxy chalcone, 2′,4′-dimethoxychalcone (1-(2,4-dimethoxyphenyl)-3-phenylprophenone)]",92.5,83.4,–,–,–
